US20240024488A1, “COMPOUNDS AND USES THEREOF” (Foghorn Therapeutics Inc., priority 2020, published 2024)

Experiments:
HiBit-BRM fusion protein = molecular target: T1, HiBit-BRM fusion protein (Homo sapiens, UniProt P51531); test: HiBiT-BRM cell-based degradation assay (Nano-Glo HiBiT Lytic Detection, 24 h); conditions: HeLa cell line expressing HiBiT-BRM; for DC50: read-out: BRM HiBit Degradation IC50
T1 construct: expressed in transfected cells
Summary of the method: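 Percent BRM loss was derived from HiBiT luminescence relative to DMSO-treated cells and cells given 2 μM of a known BRM/BRG1 degrader. Treatment lasted 24 h in HiBiT-BRM HeLa cells, with a top final concentration of 30 μM.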

[1] = molecular target: T2, HiBit-BRG1 fusion protein (Homo sapiens, UniProt P51532); test: HiBiT-BRG1 cell-based degradation assay (Nano-Glo HiBiT Lytic Detection, 24 h); conditions: HeLa cell line expressing HiBit-BRG1 and LgBit; for Dmax: read-out: BRG1 HiBit Degradation Maximum (%); for DC50: read-out: BRMG1 HiBit Degradation IC50
T2 construct: expressed in transfected cells
Summary of the method: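 Stable HeLa line co-expressing HiBit-BRG1 and LgBit, 5000 cells/well, treated 24 h in a tissue culture incubator. Lysed with Nano-Glo HiBiT lytic reagent, luminescence read. % degradation normalized to DMSO (high control) and 2 μM reference BRM/BRG1 degrader (low control).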

T1 sequence (P51531 whole entry, the tested form may be a part): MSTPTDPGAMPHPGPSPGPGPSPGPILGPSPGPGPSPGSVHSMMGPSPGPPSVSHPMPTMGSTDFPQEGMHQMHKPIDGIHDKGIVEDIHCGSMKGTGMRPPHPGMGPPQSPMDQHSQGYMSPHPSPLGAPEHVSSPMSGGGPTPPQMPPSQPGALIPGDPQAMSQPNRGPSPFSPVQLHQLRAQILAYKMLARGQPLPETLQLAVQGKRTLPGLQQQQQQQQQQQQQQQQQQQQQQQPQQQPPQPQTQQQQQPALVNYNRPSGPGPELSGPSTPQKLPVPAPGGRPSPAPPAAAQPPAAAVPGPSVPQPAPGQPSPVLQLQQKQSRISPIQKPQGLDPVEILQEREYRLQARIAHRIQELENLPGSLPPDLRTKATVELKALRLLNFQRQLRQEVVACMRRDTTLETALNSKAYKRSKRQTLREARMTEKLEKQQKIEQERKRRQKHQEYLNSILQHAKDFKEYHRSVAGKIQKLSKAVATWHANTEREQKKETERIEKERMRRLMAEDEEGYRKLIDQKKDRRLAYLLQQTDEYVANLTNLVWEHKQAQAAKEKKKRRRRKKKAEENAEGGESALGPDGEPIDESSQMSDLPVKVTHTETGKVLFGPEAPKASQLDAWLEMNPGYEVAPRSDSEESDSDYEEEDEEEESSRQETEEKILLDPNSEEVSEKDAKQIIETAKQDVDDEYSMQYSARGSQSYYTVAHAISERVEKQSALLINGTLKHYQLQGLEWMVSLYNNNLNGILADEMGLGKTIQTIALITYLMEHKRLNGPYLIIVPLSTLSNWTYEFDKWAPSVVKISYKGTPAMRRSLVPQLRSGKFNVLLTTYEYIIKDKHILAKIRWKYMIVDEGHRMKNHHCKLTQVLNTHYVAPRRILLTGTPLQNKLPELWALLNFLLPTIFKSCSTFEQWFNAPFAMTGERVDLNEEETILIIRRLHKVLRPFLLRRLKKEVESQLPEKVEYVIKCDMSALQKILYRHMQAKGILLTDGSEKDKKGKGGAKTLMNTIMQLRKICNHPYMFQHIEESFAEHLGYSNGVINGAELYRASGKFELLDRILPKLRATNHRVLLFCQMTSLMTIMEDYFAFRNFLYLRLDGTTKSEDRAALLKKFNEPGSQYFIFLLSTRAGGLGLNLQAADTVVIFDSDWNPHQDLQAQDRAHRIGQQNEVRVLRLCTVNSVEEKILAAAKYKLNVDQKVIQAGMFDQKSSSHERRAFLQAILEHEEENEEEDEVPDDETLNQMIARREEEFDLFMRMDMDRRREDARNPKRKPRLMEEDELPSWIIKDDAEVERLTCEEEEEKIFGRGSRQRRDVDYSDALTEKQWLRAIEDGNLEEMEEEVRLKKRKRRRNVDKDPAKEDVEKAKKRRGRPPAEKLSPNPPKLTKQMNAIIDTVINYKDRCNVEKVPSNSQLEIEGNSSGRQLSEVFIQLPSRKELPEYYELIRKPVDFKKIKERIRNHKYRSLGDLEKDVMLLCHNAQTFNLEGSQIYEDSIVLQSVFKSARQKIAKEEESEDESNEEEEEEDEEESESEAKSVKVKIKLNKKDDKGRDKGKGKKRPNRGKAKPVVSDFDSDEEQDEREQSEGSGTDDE
T2 sequence (P51532 whole entry, the tested form may be a part): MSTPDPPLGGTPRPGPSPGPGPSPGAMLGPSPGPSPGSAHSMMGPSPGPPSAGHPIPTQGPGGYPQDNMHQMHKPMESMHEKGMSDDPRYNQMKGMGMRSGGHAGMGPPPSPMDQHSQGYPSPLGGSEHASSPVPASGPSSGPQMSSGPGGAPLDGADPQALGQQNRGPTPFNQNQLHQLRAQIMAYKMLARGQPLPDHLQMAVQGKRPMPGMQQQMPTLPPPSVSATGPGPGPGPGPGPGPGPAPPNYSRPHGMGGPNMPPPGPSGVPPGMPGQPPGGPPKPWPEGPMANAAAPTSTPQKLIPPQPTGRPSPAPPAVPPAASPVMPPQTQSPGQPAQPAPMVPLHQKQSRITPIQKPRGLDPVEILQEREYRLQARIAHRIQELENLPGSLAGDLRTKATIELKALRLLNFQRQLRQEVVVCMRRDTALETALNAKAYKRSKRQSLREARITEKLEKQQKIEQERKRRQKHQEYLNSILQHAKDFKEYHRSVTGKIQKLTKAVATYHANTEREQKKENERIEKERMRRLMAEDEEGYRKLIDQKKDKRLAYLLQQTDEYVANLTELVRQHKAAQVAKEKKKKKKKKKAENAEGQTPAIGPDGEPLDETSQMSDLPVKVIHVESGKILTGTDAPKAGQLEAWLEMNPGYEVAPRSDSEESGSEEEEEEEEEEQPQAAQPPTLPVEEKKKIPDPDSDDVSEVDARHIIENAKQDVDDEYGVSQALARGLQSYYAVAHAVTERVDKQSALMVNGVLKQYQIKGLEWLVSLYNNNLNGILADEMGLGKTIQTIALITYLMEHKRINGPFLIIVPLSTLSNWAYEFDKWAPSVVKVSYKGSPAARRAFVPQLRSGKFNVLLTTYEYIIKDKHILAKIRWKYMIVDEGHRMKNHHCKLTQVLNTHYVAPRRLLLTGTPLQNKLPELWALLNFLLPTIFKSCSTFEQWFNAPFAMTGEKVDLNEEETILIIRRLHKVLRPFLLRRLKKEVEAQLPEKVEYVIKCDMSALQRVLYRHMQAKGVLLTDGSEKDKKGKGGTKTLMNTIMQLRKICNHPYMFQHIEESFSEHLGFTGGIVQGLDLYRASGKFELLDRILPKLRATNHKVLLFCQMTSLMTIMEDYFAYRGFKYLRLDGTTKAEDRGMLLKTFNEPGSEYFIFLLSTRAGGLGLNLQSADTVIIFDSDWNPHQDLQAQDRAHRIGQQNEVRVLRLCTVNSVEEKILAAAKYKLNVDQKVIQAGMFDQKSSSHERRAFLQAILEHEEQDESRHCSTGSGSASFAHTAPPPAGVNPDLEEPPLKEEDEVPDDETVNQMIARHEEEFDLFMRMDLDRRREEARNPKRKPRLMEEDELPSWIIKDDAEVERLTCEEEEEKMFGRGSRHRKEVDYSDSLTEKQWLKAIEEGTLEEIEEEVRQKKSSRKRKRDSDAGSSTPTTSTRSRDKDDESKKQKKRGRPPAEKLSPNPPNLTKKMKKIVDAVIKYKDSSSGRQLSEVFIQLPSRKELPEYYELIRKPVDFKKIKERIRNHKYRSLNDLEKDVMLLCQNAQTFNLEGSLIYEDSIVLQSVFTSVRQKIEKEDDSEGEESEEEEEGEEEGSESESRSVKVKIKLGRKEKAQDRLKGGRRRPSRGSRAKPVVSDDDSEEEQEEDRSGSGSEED

SMILES	BRM HiBit Degradation Maximum (%) (HiBit-BRM fusion protein)	Dmax [1]	DC50 (HiBit-BRM fusion protein)	DC50 [1]
O=C1CCC(N2C(=O)c3cccc(NCCOCCOCCC(=O)N4CC(c5cc6cc(-c7ccccc7O)nnc6[nH]5)C4)c3C2=O)C(=O)N1 (centres unmarked) [Compound 27, 2-(2,6-dioxopiperidin-3-yl)-4-((2-(2-(3-(3-(3-(2-hydroxyphenyl)-7H-pyrrolo[2,3-c]pyridazin-6-yl)azetidin-1-yl)-3-oxopropoxy)ethoxy)ethyl)amino)isoindoline-1,3-dione]	C (“C” indicates maximum degradation < 50%)	< 50%	–	–
Cc1ncsc1-c1ccc([C@H](C)NC(=O)[C@@H]2C[C@@H](O)CN2C(=O)[C@@H](c2cc(OCCN3CCC[C@H](c4cc5cc(-c6ccccc6O)nnc5[nH]4)C3)no2)C(C)C)cc1 (racemic) [Compound 278, (2S,4R)-4-hydroxy-1-((R)-2-(3-(2-((S)-3-(3-(2-hydroxyphenyl)-7H-pyrrolo[2,3-c]pyridazin-6-yl)piperidin-1-yl)ethoxy)isoxazol-5-yl)-3-methylbutanoyl)-N-((S)-1-(4-(4-methylthiazol-5-yl)phenyl)ethyl)pyrrolidine-2-carboxamide]	A (“A” indicates maximum degradation ≥ 75%)	> 50%	> 10 nM	> 10 nM
O=C1CCC(N2C(=O)c3cccc(NCCCCCCCCCCC(=O)N4CC(c5cc6cc(-c7ccccc7O)nnc6[nH]5)C4)c3C2=O)C(=O)N1 (centres unmarked) [Compound 28, 2-(2,6-dioxopiperidin-3-yl)-4-((11-(3-(3-(2-hydroxyphenyl)-7H-pyrrolo[2,3-c]pyridazin-6-yl)azetidin-1-yl)-11-oxoundecyl)amino)isoindoline-1,3-dione]	C (“C” indicates maximum degradation < 50%)	< 50%	–	–
Cc1ncsc1-c1ccc(CNC(=O)[C@@H]2C[C@@H](O)CN2C(=O)[C@@H](NC(=O)CCN(C)C23CC(c4cc5cc(-c6ccccc6O)nnc5[nH]4)(C2)C3)C(C)(C)C)cc1 (racemic) [Compound 293, (2S,4R)-4-hydroxy-1-[(2S)-2-[3-([3-[3-(2-hydroxyphenyl)-7H-pyrrolo[2,3-c]pyridazin-6-yl]bicyclo[1.1.1]pentan-1-yl](methyl)amino)propanamido]-3,3-dimethylbutanoyl]-N-[[4-(4-methyl-1,3-thiazol-5-yl)phenyl]methyl]pyrrolidine-2-carboxamide]	A (“A” indicates maximum degradation ≥ 75%)	> 50%	> 100 nM	> 1000 nM
Cc1ncsc1-c1ccc([C@H](C)NC(=O)[C@@H]2C[C@@H](O)CN2C(=O)[C@@H](c2cc(OCCNC(=O)C(=O)N3CC(c4c[nH]c5nnc(-c6ccccc6O)cc45)C3)no2)C(C)C)cc1 (racemic) [Compound 250, (2S,4R)-4-hydroxy-1-((R)-2-(3-(2-(2-(3-(3-(2-hydroxyphenyl)-7H-pyrrolo[2,3-c]pyridazin-5-yl)azetidin-1-yl)-2-oxoacetamido)ethoxy)isoxazol-5-yl)-3-methylbutanoyl)-N-((S)-1-(4-(4-methylthiazol-5-yl)phenyl)ethyl)pyrrolidine-2-carboxamide]	A (“A” indicates maximum degradation ≥ 75%)	< 50%	> 100 nM	–
Cc1ncsc1-c1ccc(CNC(=O)[C@@H]2C[C@@H](O)CN2C(=O)[C@@H](NC(=O)CCC(=O)N[C@H]2CCc3[nH]c4nnc(-c5ccccc5O)cc4c3C2)C(C)(C)C)cc1 (relative stereo) [Compound 174, N1-((S)-1-((2S,4R)-4-hydroxy-2-((4-(4-methylthiazol-5-yl)benzyl)carbamoyl)pyrrolidin-1-yl)-3,3-dimethyl-1-oxobutan-2-yl)-N4-((S)-3-(2-hydroxyphenyl)-6,7,8,9-tetrahydro-5H-pyridazino[3,4-b]indol-6-yl)succinamide]	B (“B” indicates maximum degradation ≥ 50%)	< 50%	> 1000 nM	–
Cc1ncsc1-c1ccc([C@H](C)NC(=O)[C@@H]2C[C@@H](O)CN2C(=O)[C@@H](c2cc(C3CCN(Cc4cc5cc(-c6ccccc6O)nnc5[nH]4)CC3)no2)C(C)C)cc1 (racemic) [Compound 118, (2S,4R)-4-hydroxy-1-((R)-2-(3-(1-((3-(2-hydroxyphenyl)-7H-pyrrolo[2,3-c]pyridazin-6-yl)methyl)piperidin-4-yl)isoxazol-5-yl)-3-methylbutanoyl)-N-((S)-1-(4-(4-methylthiazol-5-yl)phenyl)ethyl)pyrrolidine-2-carboxamide]	A (“A” indicates maximum degradation ≥ 75%)	< 50%	> 10 nM	–
Cc1ncsc1-c1ccc([C@H](C)NC(=O)[C@@H]2C[C@@H](O)CN2C(=O)[C@@H](c2cc(OCCN3CCC[C@@H](c4cc5cc(-c6ccccc6O)nnc5[nH]4)C3)no2)C(C)C)cc1 (racemic) [Compound 279, (2S,4R)-4-hydroxy-1-((R)-2-(3-(2-((R)-3-(3-(2-hydroxyphenyl)-7H-pyrrolo[2,3-c]pyridazin-6-yl)piperidin-1-yl)ethoxy)isoxazol-5-yl)-3-methylbutanoyl)-N-((S)-1-(4-(4-methylthiazol-5-yl)phenyl)ethyl)pyrrolidine-2-carboxamide]	A (“A” indicates maximum degradation ≥ 75%)	< 50%	> 10 nM	–
Cc1ncsc1-c1ccc([C@H](C)NC(=O)[C@@H]2C[C@@H](O)CN2C(=O)[C@@H](c2cc(OCCN3CC(c4cc5cc(-c6ccccc6O)nnc5n4C(F)F)C3)no2)C(C)C)cc1 (racemic) [Compound 148, (2S,4R)-1-[(2R)-2-[3-(2-{3-[7-(difluoromethyl)-3-(2-hydroxyphenyl)pyrrolo[2,3-c]pyridazin-6-yl]azetidin-1-yl}ethoxy)-1,2-oxazol-5-yl]-3-methylbutanoyl]-4-hydroxy-N-[(1S)-1-[4-(4-methyl-1,3-thiazol-5-yl)phenyl]ethyl]pyrrolidine-2-carboxamide]	C (“C” indicates maximum degradation < 50%)	< 50%	–	–
Cc1ncsc1-c1ccc([C@H](C)NC(=O)[C@@H]2C[C@@H](O)CN2C(=O)[C@@H](c2cc(N(C)CCN3CC(c4cc5cc(-c6ccccc6O)nnc5[nH]4)C3)no2)C(C)C)cc1 (racemic) [Compound 256]	A (“A” indicates maximum degradation ≥ 75%)	< 50%	> 100 nM	–
Cc1ncsc1-c1ccc([C@H](C)NC(=O)[C@@H]2C[C@@H](O)CN2C(=O)[C@@H](c2cc(N3CCC(CN4CCc5[nH]c6nnc(-c7ccccc7O)cc6c5[C@H]4C)CC3)no2)C(C)C)cc1 (racemic) [Compound 81, (2S,4R)-4-hydroxy-1-[(2R)-2-[3-(4-{[(3R)-12-(2-hydroxyphenyl)-3-methyl-4,8,10,11-tetraazatricyclo[7.4.0.0^{2,7}]trideca-1(13),2(7),9,11-tetraen-4-yl]methyl}piperidin-1-yl)-1,2-oxazol-5-yl]-3-methylbutanoyl]-N-[(1S)-1-[4-(4-methyl-1,3-thiazol-5-yl)phenyl]ethyl]pyrrolidine-2-carboxamide]	A (“A” indicates maximum degradation ≥ 75%)	> 75%	> 10 nM	> 100 nM
Cc1ncsc1-c1ccc(CNC(=O)[C@@H]2C[C@@H](O)CN2C(=O)[C@@H](NC(=O)CCCNC(=O)[C@H]2CCc3[nH]c4nnc(-c5ccccc5O)cc4c3C2)C(C)(C)C)cc1 (single isomer, unassigned) [Compound 190]	C (“C” indicates maximum degradation < 50%)	< 50%	–	–
Cc1ncsc1-c1ccc([C@H](C)NC(=O)[C@@H]2C[C@@H](O)CN2C(=O)[C@H](c2cc(CCCN3CC(c4cc5cc(-c6ccccc6O)nnc5[nH]4)C3)no2)C(C)C)cc1 (single isomer, unassigned) [Compound 202]	C (“C” indicates maximum degradation < 50%)	< 50%	–	–
Cc1ncsc1-c1ccc(CNC(=O)[C@@H]2C[C@@H](O)CN2C(=O)[C@H](c2cc(OCCN3CC(c4cc5cc(-c6ccccc6O)nnc5[nH]4)C3)no2)C(C)C)cc1 (single isomer, unassigned) [Compound 207]	C (“C” indicates maximum degradation < 50%)	< 50%	–	–
Cc1ncsc1-c1ccc([C@H](C)NC(=O)[C@@H]2C[C@@H](O)CN2C(=O)[C@@H](c2cc(OCCCN3CC4(CC(c5c[nH]c6nnc(-c7ccccc7O)cc56)C4)C3)no2)C(C)C)cc1 (racemic) [Compound 211, (2S,4R)-4-hydroxy-1-((R)-2-(3-(3-(6-(3-(2-hydroxyphenyl)-7H-pyrrolo[2,3-c]pyridazin-5-yl)-2-azaspiro[3.3]heptan-2-yl)propoxy)isoxazol-5-yl)-3-methylbutanoyl)-N-((S)-1-(4-(4-methylthiazol-5-yl)phenyl)ethyl)pyrrolidine-2-carboxamide]	A (“A” indicates maximum degradation ≥ 75%)	> 75%	> 10 nM	> 100 nM
Cc1ncsc1-c1ccc([C@H](C)NC(=O)[C@@H]2C[C@@H](O)CN2C(=O)[C@@H](c2cc(OCCNCc3ccc(Cc4cc5cc(-c6ccccc6O)nnc5[nH]4)cc3)no2)C(C)C)cc1 (racemic) [Compound 295]	A (“A” indicates maximum degradation ≥ 75%)	> 75%	> 10 nM	> 100 nM
Cc1ncsc1-c1ccc([C@H](C)NC(=O)[C@@H]2C[C@@H](O)CN2C(=O)[C@@H](c2cc(C3CCN(C(=O)CN4CC(c5cc6cc(-c7ccccc7O)nnc6[nH]5)C4)CC3)no2)C(C)C)cc1 (single isomer, unassigned) [Compound 179]	A (“A” indicates maximum degradation ≥ 75%)	< 50%	> 100 nM	–
